Data taken from the NIST ThermoML archive (doi:10.1021/acs.jced.5b00944).

Columns and labels:
[1] = for surface tension liquid-gas: Capillary rise; for speed of sound / mass density: 100 kPa, Liquid; for speed of sound: Sing-around technique in a fixed-path interferometer; for mass density: Vibrating tube method
[2] = xn = mol fraction of the nth substance listed; conditions: x1 = 1; for surface tension liquid-gas: Capillary rise; for speed of sound: Sing-around technique in a fixed-path interferometer

O [water]
[1]
Conditions | speed of sound [m/s] | surface tension liquid-gas [mN/m]
297.7 K | – | 71.9
304.8 K | – | 70.6
313.2 K | – | 69.5
318.15 K | 1536.7 | –
324.1 K | – | 67.6
333.15 K | 1551.3 | –

CCCC[N+]1(C)CCCC1.N#CN=C=[N-] [1-butyl-1-methylpyrrolidinium dicyanamide]
[1]
Conditions | mass density [kg/m3] | speed of sound [m/s]
288.15 K | 1019.11 | 1834.4
298.15 K | 1013.48 | 1809.6
308.15 K | 1007.82 | 1785.2
318.15 K | 1002.33 | 1761
333.15 K | 994.14 | 1724.7

O [water] + CCCC[N+]1(C)CCCC1.N#CN=C=[N-]
[2]
Conditions | surface tension liquid-gas [mN/m]
297.7 K | 71.9
304.8 K | 70.6
313.2 K | 69.5
324.1 K | 67.6

[2], 100 kPa, Liquid
Conditions | speed of sound [m/s]
318.15 K | 1536.7
333.15 K | 1551.3

Conditions | mass density [kg/m3]
[2], 333.15 K, 100 kPa, Liquid, Vibrating tube method | 983.19
